According to ChEMBL document CHEMBL1201862, “PubChem BioAssay data set” (2004):
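Method: 48-hour compound exposure of cells in 96-well plates, five concentrations, linear interpolation of endpoints. The concentration for 50% growth inhibition is given as GI50.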 Activity calls are given as the source filed them. Rule as the data show it: active = GI50 up to about 1.1 µM and inactive = higher.

What was measured:
Experiment in all cases: NCI anticancer screen, dose series, 48 h
HCC 2998 = system: HCC 2998
T47D = system: T47D
786-0 = system: 786-0
OVCAR-3 = system: OVCAR-3
CCRF-CEM = system: CCRF-CEM
OVCAR-4 = system: OVCAR-4
SN12C = system: SN12C
NCI-H226 = system: NCI-H226
OVCAR-8 = system: OVCAR-8
NCI-H23 = system: NCI-H23
COLO 205 = system: COLO 205
SK-MEL-5 = system: SK-MEL-5
SK-OV-3 = system: SK-OV-3
UACC-62 = system: UACC-62
RPMI-8226 = system: RPMI-8226
U-251 = system: U-251
RXF 393 = system: RXF 393
MOLT-4 = system: MOLT-4
M14 = system: M14
SNB-75 = system: SNB-75
A498 = system: A498
HT-29 = system: HT-29
IGROV-1 = system: IGROV-1
OVCAR-5 = system: OVCAR-5
K562 = system: K562
A549 = system: A549
KM12 = system: KM12
NCI-H460 = system: NCI-H460
DU-145 = system: DU-145
SF-268 = system: SF-268
CAKI-1 = system: CAKI-1
HOP-62 = system: HOP-62
UO-31 = system: UO-31
SNB-19 = system: SNB-19
NCI/ADR-RES = system: NCI/ADR-RES
SK-MEL-28 = system: SK-MEL-28
TK-10 = system: TK-10
SK-MEL-2 = system: SK-MEL-2
Malme-3M = system: Malme-3M
HCT-116 = system: HCT-116
ACHN = system: ACHN
SW-620 = system: SW-620
PC-3 = system: PC-3
UACC-257 = system: UACC-257
MDA-MB-435 = system: MDA-MB-435
SF-295 = system: SF-295
HCT-15 = system: HCT-15
LOX IMVI = system: LOX IMVI
MDA-N = system: MDA-N
NCI-H522 = system: NCI-H522
MDA-MB-231 = system: MDA-MB-231
BT-549 = system: BT-549
Hs-578T = system: Hs-578T
MCF7 = system: MCF7
EKVX = system: EKVX
SF-539 = system: SF-539
HL-60 = system: HL-60
SR = system: SR

Compound: CCOC(=O)c1[nH]c2nc(SC)nc(Nc3ccccc3Cl)c2c1N
- GI50 (HCC 2998): 27.4 µM (inactive)
- GI50 (T47D): 13.1 µM (inactive)
- GI50 (786-0): 20.2 µM (inactive)
- GI50 (OVCAR-3): 20.7 µM (inactive)
- GI50 (CCRF-CEM): 15.3 µM (inactive)
- GI50 (OVCAR-4): 14.6 µM (inactive)
- GI50 (SN12C): 36.2 µM (inactive)
- GI50 (NCI-H226): 15.3 µM (inactive)
- GI50 (OVCAR-8): 16 µM (inactive)
- GI50 (NCI-H23): 19.2 µM (inactive)
- GI50 (COLO 205): 28.9 µM (inactive)
- GI50 (SK-MEL-5): 6.21 µM (inactive)
- GI50 (SK-OV-3): 21.4 µM (inactive)
- GI50 (UACC-62): 16.6 µM (inactive)
- GI50 (RPMI-8226): 15.2 µM (inactive)
- GI50 (U-251): 13.9 µM (inactive)
- GI50 (RXF 393): 12.4 µM (inactive)
- GI50 (MOLT-4): 8.55 µM (inactive)
- GI50 (M14): 37.8 µM (inactive)
- GI50 (SNB-75): 16.2 µM (inactive)
- GI50 (A498): 12.6 µM (inactive)
- GI50 (HT-29): 11.7 µM (inactive)
- GI50 (IGROV-1): 26.9 µM (inactive)
- GI50 (OVCAR-5): 19.6 µM (inactive)
- GI50 (K562): 13.9 µM (inactive)
- GI50 (A549): 13.2 µM (inactive)
- GI50 (KM12): 31.3 µM (inactive)
- GI50 (NCI-H460): 11.6 µM (inactive)
- GI50 (DU-145): 23.2 µM (inactive)
- GI50 (SF-268): 19.8 µM (inactive)
- GI50 (CAKI-1): 25.5 µM (inactive)
- GI50 (HOP-62): 18.3 µM (inactive)
- GI50 (UO-31): 15.7 µM (inactive)
- GI50 (SNB-19): 17.5 µM (inactive)
- GI50 (NCI/ADR-RES): 18.8 µM (inactive)
- GI50 (SK-MEL-28): 31.3 µM (inactive)
- GI50 (TK-10): 22.5 µM (inactive)
- GI50 (SK-MEL-2): 29 µM (inactive)
- GI50 (Malme-3M): 24.3 µM (inactive)
- GI50 (HCT-116): 15.6 µM (inactive)
- GI50 (ACHN): 18.3 µM (inactive)
- GI50 (SW-620): 27.2 µM (inactive)
- GI50 (PC-3): 15.7 µM (inactive)
- GI50 (UACC-257): 33.6 µM (inactive)
- GI50 (MDA-MB-435): 31.6 µM (inactive)
- GI50 (SF-295): 21 µM (inactive)
- GI50 (HCT-15): 35.3 µM
- GI50 (LOX IMVI): 11.8 µM (inactive)
- GI50 (MDA-N): 30.5 µM (inactive)
- GI50 (NCI-H522): 16.8 µM (inactive)
- GI50 (MDA-MB-231): 16.6 µM (inactive)
- GI50 (BT-549): 20 µM (inactive)
- GI50 (Hs-578T): 20.1 µM (inactive)

Compound: CC1(C)Oc2ccc3c(=O)c(-c4ccccc4)c(-c4ccccc4)oc3c2C1C(=O)O (centres undefined)
- GI50 (HCC 2998): > 100 µM (inactive)
- GI50 (T47D): > 100 µM (inactive)
- GI50 (786-0): > 100 µM (inactive)
- GI50 (OVCAR-3): > 100 µM (inactive)
- GI50 (CCRF-CEM): > 100 µM (inactive)
- GI50 (OVCAR-4): 77.1 µM (inactive)
- GI50 (SN12C): > 100 µM (inactive)
- GI50 (NCI-H226): > 100 µM (inactive)
- GI50 (OVCAR-8): > 100 µM (inactive)
- GI50 (NCI-H23): > 100 µM (inactive)
- GI50 (COLO 205): > 100 µM (inactive)
- GI50 (SK-MEL-5): > 100 µM (inactive)
- GI50 (SK-OV-3): > 100 µM (inactive)
- GI50 (UACC-62): > 100 µM (inactive)
- GI50 (U-251): > 100 µM (inactive)
- GI50 (RXF 393): > 100 µM (inactive)
- GI50 (MOLT-4): 48.3 µM (inactive)
- GI50 (M14): > 100 µM (inactive)
- GI50 (A498): > 100 µM (inactive)
- GI50 (HT-29): > 100 µM (inactive)
- GI50 (IGROV-1): > 100 µM (inactive)
- GI50 (OVCAR-5): > 100 µM (inactive)
- GI50 (K562): 63 µM (inactive)
- GI50 (A549): > 100 µM (inactive)
- GI50 (DU-145): > 100 µM (inactive)
- GI50 (SF-268): > 100 µM (inactive)
- GI50 (CAKI-1): > 100 µM (inactive)
- GI50 (HOP-62): > 100 µM (inactive)
- GI50 (NCI/ADR-RES): > 100 µM (inactive)
- GI50 (MCF7): > 100 µM (inactive)
- GI50 (EKVX): > 100 µM (inactive)
- GI50 (TK-10): > 100 µM (inactive)
- GI50 (SK-MEL-2): > 100 µM (inactive)
- GI50 (Malme-3M): > 100 µM (inactive)
- GI50 (HCT-116): > 100 µM (inactive)
- GI50 (PC-3): > 100 µM (inactive)
- GI50 (UACC-257): > 100 µM (inactive)
- GI50 (SF-539): > 100 µM (inactive)
- GI50 (MDA-MB-435): > 100 µM (inactive)
- GI50 (SF-295): > 100 µM (inactive)
- GI50 (HCT-15): 33.3 µM
- GI50 (MDA-N): > 100 µM (inactive)
- GI50 (NCI-H522): > 100 µM (inactive)
- GI50 (MDA-MB-231): > 100 µM (inactive)
- GI50 (BT-549): > 100 µM (inactive)
- GI50 (Hs-578T): 64.9 µM (inactive)

Compound: Cc1c2ccccc2cc2cccc[n+]12
- GI50 (HCC 2998): 15.2 µM (inactive)
- GI50 (786-0): 61.8 µM (inactive)
- GI50 (OVCAR-3): 24.4 µM (inactive)
- GI50 (CCRF-CEM): 31.9 µM (inactive)
- GI50 (SN12C): 29.6 µM (inactive)
- GI50 (OVCAR-8): 31.6 µM (inactive)
- GI50 (NCI-H23): 18.2 µM (inactive)
- GI50 (COLO 205): 19.8 µM (inactive)
- GI50 (SK-MEL-5): 27.4 µM (inactive)
- GI50 (UACC-62): 41.7 µM (inactive)
- GI50 (RPMI-8226): 18.7 µM (inactive)
- GI50 (RXF 393): 23.3 µM (inactive)
- GI50 (MOLT-4): 13 µM (inactive)
- GI50 (SNB-75): 21.9 µM (inactive)
- GI50 (HT-29): 29.2 µM (inactive)
- GI50 (IGROV-1): 26.1 µM (inactive)
- GI50 (OVCAR-5): 56.6 µM (inactive)
- GI50 (K562): 10.4 µM (inactive)
- GI50 (A549): 6.82 µM (inactive)
- GI50 (KM12): 6.52 µM (inactive)
- GI50 (NCI-H460): 35.2 µM (inactive)
- GI50 (DU-145): 61.4 µM (inactive)
- GI50 (SF-268): 10.4 µM (inactive)
- GI50 (HL-60): 29.3 µM (inactive)
- GI50 (HOP-62): 21.6 µM (inactive)
- GI50 (UO-31): 10.6 µM (inactive)
- GI50 (SNB-19): 28.6 µM (inactive)
- GI50 (NCI/ADR-RES): > 100 µM (inactive)
- GI50 (MCF7): 57.7 µM (inactive)
- GI50 (SK-MEL-28): 25.7 µM (inactive)
- GI50 (EKVX): 4.72 µM (inactive)
- GI50 (TK-10): 39.8 µM (inactive)
- GI50 (SK-MEL-2): 41.3 µM (inactive)
- GI50 (Malme-3M): 11.3 µM (inactive)
- GI50 (HCT-116): 37.2 µM (inactive)
- GI50 (ACHN): 62.1 µM (inactive)
- GI50 (SW-620): 8.34 µM (inactive)
- GI50 (PC-3): 30 µM (inactive)
- GI50 (UACC-257): 19.2 µM (inactive)
- GI50 (SF-539): 32.1 µM (inactive)
- GI50 (MDA-MB-435): 36 µM (inactive)
- GI50 (SF-295): 34.8 µM (inactive)
- GI50 (HCT-15): > 100 µM
- GI50 (SR): 12.6 µM (inactive)
- GI50 (LOX IMVI): 27.8 µM (inactive)
- GI50 (MDA-N): 37.8 µM (inactive)
- GI50 (NCI-H522): 12.9 µM (inactive)
- GI50 (MDA-MB-231): 37.7 µM (inactive)
- GI50 (BT-549): 23.4 µM (inactive)
- GI50 (Hs-578T): 25.6 µM (inactive)
